# From PubChem BioAssay (NCI)
#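 Grown in 96-well plates, cells were treated for 48 hours with each compound at five concentrations. Insufficient inhibition: endpoint recorded as highest concentration tested. Abbreviation: GI50, concentration required for 50% inhibition of growth. Definition used: TGI = concentration required for complete inhibition of growth.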
# Key:
# Experiment in all cases: NCI tumour cell line growth inhibition, 48 h
# IGROV1 ovarian = test system: IGROV1 ovarian
# BT-549 breast = test system: BT-549 breast
# NCI-H226 lung = test system: NCI-H226 lung
# TK-10 renal = test system: TK-10 renal
# DU-145 prostate = test system: DU-145 prostate
# HS 578T breast = test system: HS 578T breast
# SF-539 CNS = test system: SF-539 CNS
# HL-60(TB) leukemia = test system: HL-60(TB) leukemia
SMILES,GI50 (IGROV1 ovarian),TGI (IGROV1 ovarian),GI50 (BT-549 breast),TGI (BT-549 breast),GI50 (NCI-H226 lung),TGI (NCI-H226 lung),GI50 (TK-10 renal),TGI (TK-10 renal),GI50 (DU-145 prostate),TGI (DU-145 prostate),GI50 (HS 578T breast),TGI (HS 578T breast),GI50 (SF-539 CNS),TGI (SF-539 CNS),TGI (HL-60(TB) leukemia),GI50 (HL-60(TB) leukemia)
CO/N=C(/C)c1cccc(Nc2cc(-c3ccccc3)nc3ccc(OC)cc23)c1,26.2 µM,> 100 µM,22.4 µM,46.6 µM,15.7 µM,41 µM,3.32 µM,12.8 µM,12 µM,31.5 µM,27.6 µM,64.3 µM,2.45 µM,4.89 µM,–,–
Nc1nc(N)c2cc(CNc3ccc(C(=O)NC(CC(=O)O)C(=O)O)c(Cl)c3)ccc2n1 (stereo not given),223 µM,> 500 µM,> 500 µM,> 500 µM,> 500 µM,> 500 µM,> 500 µM,> 500 µM,–,> 500 µM,–,> 500 µM,0.05 µM,> 500 µM,> 500 µM,–
CN1CCN(c2ccc(Nc3ncc4cc(C#N)c(=O)n(C5CCCC5)c4n3)cc2)CC1,0.605 µM,> 23.3 µM,2.65 µM,7.58 µM,0.84 µM,10.6 µM,0.82 µM,> 24.2 µM,2.13 µM,> 100 µM,0.807 µM,6.07 µM,1.28 µM,3.27 µM,4.2 µM,0.595 µM
NC(=S)N/N=C/c1cc(-c2cccc(N)c2)ccn1,3.05 µM,> 24.5 µM,3.52 µM,> 100 µM,1.73 µM,8.18 µM,1.2 µM,44 µM,1.25 µM,12 µM,0.585 µM,> 57.4 µM,0.675 µM,6.17 µM,–,0.281 µM
Cc1ncc([N+](=O)[O-])n1CCNS(=O)(=O)CCCn1ncnc1[N+](=O)[O-],–,> 100 µM,–,> 100 µM,–,> 100 µM,–,> 100 µM,–,> 100 µM,–,> 100 µM,–,> 100 µM,> 100 µM,–
O=C(OCC(OC(=O)c1ccccc1)C(OC(=O)c1ccccc1)C(OC(=O)c1ccccc1)c1cnn(-c2ccccc2)n1)c1ccccc1 (stereo not given),–,> 100 µM,–,> 100 µM,–,> 100 µM,–,> 100 µM,–,> 100 µM,–,> 100 µM,–,> 100 µM,> 100 µM,–
O=C(O)C12CC3(C(=O)O)CC(C(=O)O)(CC(C(=O)O)(C1)C3=O)C2=O,–,> 100 µM,–,> 100 µM,–,> 100 µM,–,> 100 µM,–,> 100 µM,–,> 100 µM,–,–,–,–
O=C(NCc1ccc(S(=O)(=O)c2cc(F)cc(F)c2)cc1)c1ccc2nccn2c1,12.1 µM,> 80.4 µM,0.296 µM,12.1 µM,> 46 µM,> 73.9 µM,36.3 µM,> 62.9 µM,0.0773 µM,> 100 µM,20.5 µM,80.1 µM,< 0.01 µM,> 42.9 µM,> 100 µM,> 40.2 µM
S=C1CC(c2ccccc2)Sc2ccc(Cl)cc2N1 (stereo not given),–,> 100 µM,–,> 100 µM,–,> 100 µM,–,> 100 µM,–,> 100 µM,–,48.3 µM,–,–,> 100 µM,–
Cn1cc(-c2ccc(-c3cncc(Cl)c3N3CCC4(CCNC4=O)CC3)cc2)cn1,68 µM,> 100 µM,26 µM,> 100 µM,65.5 µM,> 100 µM,–,–,50.3 µM,> 100 µM,80.1 µM,> 100 µM,27.8 µM,> 100 µM,55.5 µM,20.4 µM
COc1ccc2c(c1)C(C)Cc1c(ncnc1-n1cnc3cc(C)ccc31)N2C (stereo not given),0.254 µM,14.5 µM,0.184 µM,7.12 µM,0.157 µM,16.3 µM,–,–,0.325 µM,12.1 µM,0.0686 µM,31.7 µM,–,–,0.433 µM,0.0956 µM
Cc1ccc(S(=O)(=O)NC(=O)NC2=NC(C)(C)N(c3ccc(Cl)c(Cl)c3)C(N)=N2)cc1,–,> 100 µM,–,> 100 µM,–,> 100 µM,–,> 100 µM,–,> 100 µM,–,> 100 µM,–,> 100 µM,> 100 µM,–
COc1ccc(/C=C(/c2ccccc2)[N+](=O)[O-])cc1,1.27 µM,2.67 µM,1.42 µM,2.88 µM,1.95 µM,4.43 µM,1.98 µM,3.93 µM,1.65 µM,3.05 µM,2.4 µM,7.7 µM,1.77 µM,3.18 µM,6.87 µM,2.35 µM
COc1ccc2c(Oc3ccc(NC(=O)c4c(C)n(CC(C)(C)O)n(-c5ccccc5)c4=O)nc3)ccnc2c1,12.3 µM,> 100 µM,22.7 µM,> 66 µM,16.2 µM,> 78 µM,5.92 µM,19.8 µM,12.1 µM,> 100 µM,21.1 µM,> 100 µM,5.85 µM,50.9 µM,> 62.3 µM,14.6 µM
C=C1CC[C@@H](C(C)C)C[C@@H]2[C@H]([C@H](O)C[C@]2(C)O)[C@@]2(C)CC[C@@H]1O2,17.2 µM,33.4 µM,27.6 µM,55.1 µM,16.8 µM,31.5 µM,21.7 µM,43.7 µM,15.8 µM,31.4 µM,31.5 µM,82.7 µM,24.4 µM,43.3 µM,57 µM,22.6 µM
CC(C)C1=C2CCC3(C)C(CCC4C5C6OCC5(CCC6(C)C)CCC43C)C2(C)CC1 (stereo not given),–,29.2 µM,–,52.2 µM,–,> 100 µM,–,31 µM,–,37.5 µM,–,51.3 µM,–,32.9 µM,27.9 µM,–
COC(=O)CCC1=C(CC(=O)OC)C(C)=N/C1=C\c1[nH]c(-c2ccc[nH]2)cc1OC,4.21 µM,28.6 µM,6.49 µM,21.6 µM,3.29 µM,19.6 µM,3.58 µM,16.6 µM,5.87 µM,22.6 µM,4.09 µM,18.7 µM,5.63 µM,20.6 µM,14.3 µM,2.56 µM
CCN(CC)c1cc2oc3cc(N)cc(=N)c-3nc2cc1C,3.03 µM,14.3 µM,10.6 µM,27.4 µM,3.39 µM,42.8 µM,4.9 µM,23.1 µM,2.2 µM,4.92 µM,2.18 µM,7.25 µM,3.44 µM,14.2 µM,–,–
CCCCCCCCCCN1CCC(N2CCCCC2)CC1,1.66 µM,4.52 µM,3.62 µM,16.1 µM,7.55 µM,23.4 µM,2.08 µM,5.71 µM,9.64 µM,21.9 µM,2.06 µM,6.25 µM,1.48 µM,2.88 µM,3.77 µM,1.1 µM

SMILES,GI50 (IGROV1 ovarian),TGI (IGROV1 ovarian),GI50 (BT-549 breast),TGI (BT-549 breast),GI50 (NCI-H226 lung),TGI (NCI-H226 lung),GI50 (TK-10 renal),TGI (TK-10 renal),GI50 (DU-145 prostate),TGI (DU-145 prostate),GI50 (HS 578T breast),TGI (HS 578T breast),GI50 (SF-539 CNS),TGI (SF-539 CNS),TGI (HL-60(TB) leukemia),GI50 (HL-60(TB) leukemia)
Cc1nn(C(=O)c2ccc(Cl)cc2)c2c1C(c1ccc(O)cc1)SC(N)=N2 (stereo not given),–,> 10 µM,–,> 10 µM,–,> 10 µM,–,> 10 µM,–,> 10 µM,–,> 10 µM,–,> 10 µM,> 10 µM,–
Cn1c(=O)c2c(ncn2CC(=O)Nc2ccc(-c3ccccc3)nn2)n(C)c1=O,> 100 µM,> 100 µM,> 100 µM,> 100 µM,> 100 µM,> 100 µM,> 100 µM,> 100 µM,> 100 µM,> 100 µM,> 100 µM,> 100 µM,> 100 µM,> 100 µM,> 100 µM,49.9 µM
O=C(NO)c1ccc(CN(c2cnccn2)c2cnccn2)cc1,15.6 µM,35.2 µM,13.8 µM,29.9 µM,20 µM,65.7 µM,11.3 µM,42 µM,9.26 µM,> 100 µM,23.3 µM,96.8 µM,14.1 µM,34.6 µM,82.7 µM,26.6 µM
O=C(OCc1ccc2c(Cl)cc(Cl)c(O)c2n1)N1CCN(C(=O)c2cc3cc(F)ccc3[nH]2)CC1,1.99 µM,> 100 µM,1.17 µM,> 24 µM,45.4 µM,> 100 µM,99.5 µM,> 100 µM,1.94 µM,18.6 µM,1.13 µM,> 100 µM,0.403 µM,3.02 µM,3.53 µM,1.06 µM
COCOc1ccc(C2(O)Oc3cc(OCOC)ccc3C2C)c(O)c1 (stereo not given),–,31.6 µM,–,28.2 µM,–,31.2 µM,–,32.5 µM,–,25.8 µM,–,–,–,29.1 µM,44 µM,–
O=C1CSC(c2ccc(-c3nc4ccccc4s3)cc2)=N1,50.5 µM,> 100 µM,36.2 µM,76.8 µM,–,–,17.5 µM,65.1 µM,67 µM,> 100 µM,20.2 µM,59.7 µM,–,–,> 100 µM,18.4 µM
CC1C(c2ccc3c(c2)OCO3)c2cc3c(cc2OC1N1CCOCC1)OCO3 (stereo not given),–,> 100 µM,–,> 100 µM,–,81.7 µM,–,> 100 µM,–,> 100 µM,–,55.2 µM,–,49.5 µM,> 62.2 µM,–
Nc1ccccc1SC1CC(=O)N(c2ccc(Cl)c(Cl)c2)C1=O (stereo not given),31 µM,> 100 µM,62.2 µM,> 100 µM,14.6 µM,64.4 µM,20 µM,53 µM,27.5 µM,> 100 µM,12.5 µM,49.5 µM,63.6 µM,> 100 µM,> 100 µM,> 100 µM
O=C(CSC(c1ccccc1)c1ccccc1)N/N=C/c1ccco1,–,1.41 µM,1.69 µM,2.78 µM,3 µM,17.1 µM,2.21 µM,7.62 µM,2.69 µM,> 4.92 µM,2.23 µM,5.82 µM,2.07 µM,7.55 µM,–,–
CC1=CC(=O)C(C(O)(C(F)(F)F)C(F)(F)F)C(C)(C)C1 (stereo not given),–,> 10 µM,–,–,–,> 10 µM,–,> 10 µM,–,> 10 µM,–,> 10 µM,–,> 10 µM,> 10 µM,–
O=c1oc2ccc(Br)cc2c(=O)n1-c1ccc(F)cc1F,1.94 µM,24.8 µM,1.79 µM,5.5 µM,2.32 µM,13.8 µM,4.53 µM,19.2 µM,3.82 µM,27.7 µM,2.11 µM,8.01 µM,2.17 µM,9.21 µM,–,–
Cc1ccc(Nc2nnc(-c3ccc4c(c3)OCO4)o2)c(C)c1,–,> 100 µM,–,> 100 µM,–,> 100 µM,–,> 100 µM,–,> 100 µM,–,> 100 µM,–,> 100 µM,–,–
Cc1cc(C)n(-c2nnc3n2N=C(c2ccc(-c4ccccc4)cc2)CS3)n1,4.81 µM,> 100 µM,3.69 µM,> 100 µM,4.24 µM,> 100 µM,2.47 µM,42.2 µM,3.82 µM,> 100 µM,2.76 µM,> 100 µM,2.15 µM,5.2 µM,–,–
CCOC(CN(C)C(=S)Nc1cccc2ccccc12)OCC,–,> 10 µM,–,–,–,> 10 µM,–,> 10 µM,–,> 10 µM,–,> 10 µM,–,> 10 µM,> 10 µM,–
C=CCN1CC2CON(C(=O)C(OC)(c3ccccc3)C(F)(F)F)C2C1C(C)C (stereo not given),56.9 µg/mL,–,30.1 µg/mL,–,–,–,99.3 µg/mL,–,54 µg/mL,–,37.4 µg/mL,–,66.5 µg/mL,–,23.3 µg/mL,6.09 µg/mL
Clc1cc(Cl)cc(Nc2ccc3cc(OCCCN4CCOCC4)ccc3n2)c1,3.47 µM,> 100 µM,2.65 µM,9.44 µM,3.76 µM,> 100 µM,2.88 µM,8.21 µM,3.05 µM,> 100 µM,1.99 µM,5.43 µM,–,–,5.96 µM,2.57 µM
CCC(=O)Nc1ccc(N=NN(C)C)cc1,–,–,–,> 100 µM,–,> 100 µM,–,–,–,> 100 µM,–,> 100 µM,–,> 100 µM,> 100 µM,–
CC(O)CC(O)(C(F)(F)F)C(F)(F)F (stereo not given),–,> 10 µM,–,–,–,> 10 µM,–,> 10 µM,–,> 10 µM,–,> 10 µM,–,> 10 µM,> 10 µM,–
